Where two headings read alike, the source gives them in different places. One block for each compound: values may come before it. Bridge positions count the residues as written; N and C are the ends. Square brackets hold non-standard residues; d marks the D form. Ends that are not written are not given here. Peptide text beside a SMILES is read from it. Cha = N[C@@H](CC1CCCCC1)C(=O)O; Nle = CCCC[C@H](N)C(=O)O
How the values were obtained:
[1] = system: human platelets
Protocol: (§1) Human platelet-rich plasma (PRP) is prepared by centrifugation at 200 g-forces for 10 min. at room temperature. Platelet poor plasma (PPP) is prepared by centrifugation at 2,000 g-forces for 10 min. PRP is exposed only to plastic laboratory ware. All experiments are completed within 3 hours of blood collection. Platelet aggregation is measured photometrically using a dual channel aggregometer (Chrono-log Corp., Haverstown, Pa. 19083). One hundred percent light transmission is defined with autologus PPP. Percent maximal change in light transmission is determined from PRP following addition of ADP (1 μM) or thrombin. Thrombin (0.2-2.0 Units/ml)-induced platelet aggregation is concentration dependent and the half-maximal concentration is used for inhibition studies. Peptide 2 (SEQ ID NO: 2) is incubated with PRP (0.45 ml) for 30 seconds prior to the addition of ADP or thrombin. Aggregation is measured in a total volume of 0.5 ml. Inhibitory responses are expressed as percent inhibition when compared to a control value. The concentration resulting in 50% inhibition of aggregation. (IC50) is calculated by simple linear regression.
(§2) Human platelet-rich plasma (PRP) is prepared by centrifugation at 200 g-forces for 10 min. room temperature. Platelet poor plasma (PPP) is prepared by centrifugation at 2,000 g-forces for 10 min. PRP is exposed only to plastic laboratory ware. All experiments are completed within 3 hours of blood collection. Platelet aggregation is measured photometrically using a Chrono-log dual channel aggregometer (Chrono-log Corp., Haverstown, Pa. 19083). One hundred percent light transmission is defined with autologus PPP. Percent maximal change in light transmission is determined from PRP following addition of ADP (1 μM) or thrombin. Thrombin (0.2-2.0 Units/ml)-induced platelet aggregation is concentration dependent and the half-maximal concentration is used for inhibition studies. Peptide 1 (SEQ ID NO: 1) is incubated with PRP (0.45 ml) for 30 seconds prior to the addition of ADP or thrombin. Aggregation is measured in a total volume of 0.5 ml. Inhibitory responses are expressed as percent inhibition when compared to a control value. The concentration resulting in 50% inhibition of aggregation (IC50) is calculated by simple linear regression.

[2] = system: human platelets; remark: listed apart in the source
Protocol: as §1, §2

[3] = target: T1, bovine thrombin (Bos taurus, UniProt P00735); assay: Thrombin clotting time in human plasma; assay type: biochemical
T1 construct: purchased Sigma Diagnostics, St. Louis, Mo
Protocol: (§3) Activated partial thromboplastin time (aPTT) determinations are carried out using the reagents and methods of Dade Diagnostics, Inc. (Aguada, Puerto Rico 00602). Thrombin clotting times are determined by incubating 0.1 ml of rat plasma at 37° C. with 0.1 ml of 0.1M Tris buffer, pH 7.5 for 30 seconds. Coagulation is started with 0.1 ml of bovine thrombin (Sigma Diagnostics, St. Louis, Mo. 63178) solution (12 NIH units/ml). All clotting times are measured semiautomatically using a MLA-Electra 750 automatic coagualation timer, MLA, Inc. (Pleasantville, N.Y. 10570). The concentration required for doubling the clotting time (ID2) is calculated using simple linear regression.
(§4) Activated partial thromboplastin time (aPTT) determinations are carried out using the reagents and methods of Dade Diagnostics, Inc. (Aguada, Puerto Rico 0602). Thrombin clotting times are determined by incubating 0.1 ml of rat plasma at 37° C. with 0.1 ml of 0.1M Tris buffer, pH 7.5 for 30 seconds. Coagulation is started with 0.1 ml of bovine thrombin (Sigma Diagnostics, St. Louis, Mo. 63178) solution (12 NIH units/ml). All clotting times are measured semiautomatically using a MLA-Electra 750 automatic coagualation timer, MLA, Inc. (Pleasantville, N.Y. 10570). The concentration required for doubling the clotting time (ID2) is calculated using simple linear regression.

[4] = system: human plasma; assay: Activated partial thromboplastin time (aPTT) in human plasma; assay type: biochemical
Protocol: as §3, §4

[5] = dog, in vivo
Protocol: (§5) Dogs are anesthetized with sodium pentobarbital (30 mg/kg, i.v.). The femoral artery and both femoral veins are isolated and cannulated for the recording of blood pressure (Gould P23ID, Gould Inc., Medical Products Division, Oxnard, Calif. 93030), blood sampling, and drug administration. Limb leads are placed subcutaneously for monitoring of lead II ECG. Blood pressure and ECG measurements are recorded (Gould 440 recorder, Gould Inc., Instrument Systems Division, Cleveland, Ohio 44114).
Template bleeding times are performed on the median surface of the left leg after the hair has been removed (Nair, Carter-Wallace, Inc., New York, N.Y. 10105) using a Surgicutt® bleeding time device (International Technidyne Corp., Edison, N.J. 08820). Template bleeding times are determined 60 and 30 min before administration of the drug, 15, 30, 60, 120, 180 and 240 min after drug administration.
Whole blood cell counts and analysis of the hemoglobin content are determined on a 140 μL blood sample anticoagulated with EDTA processed with a hematology analyzer (Technicon El, Miles Technicon, Tarrytown, N.Y. 10591). Samples were taken at 60 and 30 min before administration of the drug, 15, 30, 60, 120, 180 and 240 min after drug administration.

[6] = system: human whole blood platelets; details: read-out: IC50 whole blood platelet aggregation, ADP (0.5 μM) and thrombin (0.025 U/ml)
Protocol: (§6) Platelet aggregation in blood is performed in saline diluted (1:2) citrated blood using a whole blood aggregomenter (Chrono-log, model 540-VS). Aliquots of diluted blood are placed in plastic cuvettes and incubated at 37° C. for 15 min. Addition of ADP (2 μM) or thrombin (0.4 U/ml) is used to induce aggregation and the change in electrical impedance is registered on a strip chart recorder. Aggregation is measured in a total blood volume of 1.0 ml. Inhibitory responses are expressed as percent inhibition when compared to a control value. The concentration resulting in 50% inhibition of aggregation (IC50) is calculated by simple linear regression.

[7] = system: dog platelets; assay: Intravenous infusion in anesthetized dogs: platelet aggregation; details: after 1 nmol/kg/min infusion is stopped
Protocol: as §5, §6

[8] = system: thrombin; assay: Intravenous infusion in anesthetized dogs: thrombin time and aPTT
Protocol: as §5
Activated partial thromboplastin time (aPTT) determinations are carried out using the reagents and methods of Dade Diagnostics, Inc. (Aguada, Puerto Rico 0602). Thrombin clotting times are determined by incubating 0.1 ml of rat plasma at 37° C. with 0.1 ml of 0.1M Tris buffer, pH 7.5 for 30 seconds. Coagulation is started with 0.1 ml of bovine thrombin (Sigma Diagnostics, St. Louis, Mo. 63178) solution (12 NIH units/ml). All clotting times are measured semiautomatically using a MLA-Electra 750 automatic coagualation timer, MLA, Inc. (Pleasantville, N.Y. 10570). The concentration required for doubling the clotting time (ID2) is calculated using simple linear regression. […] Estimation of t1/2 is made by linear regression of the response data over time.

[9] = system: rat whole blood platelets; details: read-out: IC50 whole blood platelet aggregation, ADP (0.5 μM) and thrombin (0.025 U/ml)
Protocol: as §6

Compound: CC[C@H](C)[C@H](NC(=O)[C@@H]1CCCN1C(=O)[C@H](CCC(=O)O)NC(=O)[C@H](Cc1ccc(O)cc1)NC(=O)[C@H](CC(=O)O)NC(=O)CNC(=O)[C@H]1CSSC[C@@H](NC(=O)CNC(=O)[C@@H]2CCCN2C(=O)[C@H](CCCNC(=N)N)NC(=O)[C@@H]2CCCN2C(=O)[C@H](N)Cc2ccccc2)C(=O)NCC(=O)N[C@@H](CCCNC(=N)N)C(=O)NCC(=O)N[C@@H](CC(=O)O)C(=O)N[C@@H](Cc2ccccc2)C(=O)N2CCC[C@H]2C(=O)N1)C(=O)N1CCC[C@H]1C(=O)N[C@@H](CCC(=O)O)C(=O)N[C@@H](CCC(=O)O)C(=O)N[C@@H](C)C(=O)N[C@@H](CC1CCCCC1)C(=O)N[C@H](CCC(=O)O)C(=O)O [Peptide 2, fPRPGcGRGDFPcGDYEPIPEEA(Cha)e] (H-[dF]PRPG[dC]GRGDFP[dC]GDYEPIPEEA[Cha][dE]-OH; disulfide 6-13)
IC50 ([1]; 3 h): ~19 µM | IC50 ([2]; 3 h): 0.06 ± 0.026 µM

Compound: CN[C@H](Cc1ccccc1)C(=O)N1CCC[C@H]1C(=O)N[C@@H](CCCNC(=N)N)C(=O)O [Peptide 2d, (CH3)fPR, reference compound]
IC50 ([1]; 3 h): > 1000 µM | IC50 ([2]; 3 h): 0.2 µM

Compound: CCCC[C@@H]1NC(=O)[C@H](CC(=O)O)NC(=O)CNC(=O)[C@H](CCCNC(=N)N)NC(=O)CNC(=O)[C@H](NC(=O)CNC(=O)[C@@H]2CCCN2C(=O)[C@H](CCCNC(=N)N)NC(=O)[C@@H]2CCCN2C(=O)[C@H](N)Cc2ccccc2)CSSC[C@H](C(=O)NCC(=O)N[C@@H](CC(=O)O)C(=O)N[C@@H](Cc2ccc(O)cc2)C(=O)N[C@@H](CCC(=O)O)C(=O)N2CCC[C@H]2C(=O)N[C@H](C(=O)N2CCC[C@H]2C(=O)N[C@@H](CCC(=O)O)C(=O)N[C@@H](CCC(=O)O)C(=O)N[C@@H](C)C(=O)N[C@@H](CC2CCCCC2)C(=O)N[C@H](CCC(=O)O)C(=O)O)[C@@H](C)CC)NC(=O)[C@@H]2CCCN2C1=O [Peptide 1, fPRPGcGRGD(Nle)PcGDYEPIPEEA(Cha)e] (H-[dF]PRPG[dC]GRGD[Nle]P[dC]GDYEPIPEEA[Cha][dE]-OH; disulfide 6-13)
time after infusion ends at which blood pressure and heart rate return to baseline control values [5]: 2 h | IC50 [6]: 0.0029 µM | pharmacodynamic t1/2, restoration of platelet activity [7]: 12.8 ± 1.1 min | pharmacodynamic t1/2, restoration of thrombin activity ([8]; after 1 hr infusion of 1 nmol/kg/min): 17 ± 0.1 min | pharmacodynamic t1/2, restoration of thrombin activity ([8]; after 1 hr infusion of 5 nmol/kg/min): 26 ± 3.2 min | IC50 ([1]; 3 h): 11.4 µM | IC50 [9]: 0.0425 µM

Now from value to compound, other results behind:

ID2 Thrombin Time ([3]; human plasma, concentration doubling clotting time): 14 ± 3 nM | IC50 ([1]; read-out: IC50 inhibition of platelet aggregation, ADP, human PRP, ADP-induced): 35.9 ± 0.5 µM | IC50 ([2]; read-out: IC50 Thrombin, human PRP, thrombin-induced): 0.408 ± 0.18 µM
Compound: fPRPGCGRGD(Nle)PCGDYEPIPEEAYD [Peptide 4, reference compound]
inhibition of ADP-induced platelet aggregation (in words) ([1]; human platelets): approximately equivalent to Peptide 1 | anticoagulant activity (in words) ([4]; aPTT and thrombin time): less anticoagulant activity than Peptide 2 | ID2 aPTT ([4]; concentration doubling clotting time): 115 ± 24 nM | fold less active than Peptide 1, thrombin-induced platelet aggregation ([2]; human platelets): approximately 1,000 fold

Relative activity vs Peptide 1: Coagulation Thrombin Time ([3]; ratio to Peptide 1 (ID2 15 nM), 1 = as active as Peptide 1): 0.86
Compound: fPRPGcvRGD(Nle)PcGDYEPIPEEA(Cha)e ([dF]PRPG[dC][dV]RGD[Nle]P[dC]GDYEPIPEEA[Cha][dE]; disulfide 6-13 (inferred)) [Peptide 11]
Relative activity vs Peptide 1: Coagulation aPTT ([4]; ratio to Peptide 1 (ID2 27.9 nM), 1 = as active as Peptide 1): 0.37 | Relative activity vs Peptide 1: Aggregation Thrombin ([2]; ratio to Peptide 1 (IC50 5.8 nM), 1 = as active as Peptide 1): 0.13

From patent US5681925A, “Trifunctional antithrombin and antiplatelet peptides” (priority 1995, dated 1997)
